From patent EP0799188B1, “AMIDES OF MONO AND DICARBOXYLIC ACIDS WITH GLYCOSAMINES, SELECTIVELY ACTIVE ON THE CANNABINOID PERIPHERAL RECEPTOR” (LIFEGROUP S.p.A., priority 1994, dated 1996)
Like-named read-outs stand apart in the source and are kept apart here.

Assays:
[1] = biological target: T1, CB2 receptor (Rattus norvegicus, UniProt Q9QZN9); experiment: saturation curve of 3H-WIN 55,212-2 binding to RBL-2H3 cell membranes; conditions: 3H-WIN 55,212-2 0.5 to 20 nM, 30 µg membrane proteins, 30°C 60 min
T1 construct: 30 µg membrane proteins prepared in item a); endogenous in cells; host or cells: RBL-2H3 cells (plasma membrane preparation)
T1 sequence (Q9QZN9 1-360): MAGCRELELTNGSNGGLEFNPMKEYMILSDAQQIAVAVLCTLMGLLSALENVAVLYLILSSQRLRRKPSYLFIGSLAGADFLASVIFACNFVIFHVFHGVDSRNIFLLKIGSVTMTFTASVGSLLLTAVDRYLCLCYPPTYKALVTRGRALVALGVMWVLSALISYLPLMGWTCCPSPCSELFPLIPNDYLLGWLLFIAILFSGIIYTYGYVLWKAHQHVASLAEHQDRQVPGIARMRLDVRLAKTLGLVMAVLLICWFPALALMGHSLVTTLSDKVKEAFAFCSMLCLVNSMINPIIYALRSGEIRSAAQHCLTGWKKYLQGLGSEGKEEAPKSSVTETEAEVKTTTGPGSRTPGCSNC

[2] = system: RBL-2H3 cells; experiment: 3H-serotonin release induced by ADNP/DNP.HSA immunogenic stimulation; format: cell-based, rat; conditions: for effect on serotonin release (RBL cells immunogenic activation): statement in words on Table 3
[3] = biological target: CB2 receptor (Homo sapiens, UniProt P34972); conditions: CB2 versus CB1 central receptor; cited from earlier work
Sequence of CB2 receptor (Homo sapiens, UniProt P34972) (P34972 whole entry): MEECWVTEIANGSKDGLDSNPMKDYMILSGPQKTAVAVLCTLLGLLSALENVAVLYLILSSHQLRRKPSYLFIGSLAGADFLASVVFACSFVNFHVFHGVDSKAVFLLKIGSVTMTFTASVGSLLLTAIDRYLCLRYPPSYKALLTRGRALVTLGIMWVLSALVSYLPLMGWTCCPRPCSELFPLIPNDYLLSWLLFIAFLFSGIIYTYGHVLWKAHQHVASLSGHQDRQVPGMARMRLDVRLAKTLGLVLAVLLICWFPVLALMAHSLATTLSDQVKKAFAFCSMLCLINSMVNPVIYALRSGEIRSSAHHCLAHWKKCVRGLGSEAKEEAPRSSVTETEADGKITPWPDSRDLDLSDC

[4] = biological target: T1, CB2 receptor; experiment: 3H-WIN 55,212-2 binding displacement on RBL-2H3 cell membranes; conditions: competitor 10 µM; amides in 0.1% DMSO, Anandamide and Nabilone in 0.1% ethanol
[5] = system: cerebellar granule cell culture; experiment: neuroprotective effect against glutamate-induced cell death (MTT); format: cell-based, mouse

SMILES | Bmax [1] | 3H-serotonin net release inhibition (%) ([2]; 30µM, + anandamide (12.5 µM)) | 3H-serotonin net release inhibition (%) ([2]; 30µM, -anandamide) | 3H-serotonin net release (%) ([2]; 50µM, 0.1% DMSO and 0.1% ethanol) | 3H-serotonin net release inhibition (%) ([2]; WIN 55,212-2 30 µm, + 12.5µM anandamide) | 3H-serotonin net release inhibition (%) ([2]; WIN 55,212-2 30 µm, + 12.5µM arachidonic acid) | 3H-serotonin net release inhibition (%) ([2]; WIN 55,212-2 30 µm, + 12.5µM ethanolamide + 12.5µM arachidonic acid) | 3H-serotonin net release inhibition (%) ([2]; WIN 55,212-2 30 µm, + 12.5µM ethanolamine) | 3H-serotonin net release inhibition (%) ([2]; WIN 55,212-2 30 µm, DNP.HSA alone) | EC50 ([2]; inhibition of 3H-serotonin release, +anandamide (12.5 µM), read-out: ED50 (the source's name)) | EC50 ([2]; inhibition of 3H-serotonin release, -anandamide, read-out: ED50 (the source's name)) | EC50 ([2]; inhibition of serotonin release, 0.1% DMSO and 0.1% ethanol, read-out: ED50 (µm)) | effect on serotonin release (RBL cells immunogenic activation) [2] | affinity to the CB2 receptor, folds inferior to that of the central receptor [3] | inhibition at 12.5 µM ([2]; Rattus norvegicus, RBL-2H3, read-out: 3H-serotonin net release inhibition (%), 12.5µM, -WIN) | 3H-serotonin net release (%) ([2]; concentration not given, 0.1% DMSO and 0.1% ethanol) | Displacement (%) [4] | Specific binding [4] | EC50 ([5]; glutamate 500 µM for 5 minutes, compound added for 10 minutes, 15 minutes after removing glutamate, MTT after 24 hours, means ± SEM) | protective effect against cell death induced by glutamate ([5]; glutamate 500 µM, anandamide up to 100 µM)
Cc1c(C(=O)c2cccc3ccccc23)c2cccc3c2n1[C@H](CN1CCOCC1)CO3 [WIN 55,212-2, reference compound] | 100 to 250 pM | 36% | 100% | 0% | 15% | 59% | 61% | 72% | 69% | 40 µM | 6.4 µM | 6.4 µM | able to inhibit, in a concentration-dependent way | – | – | – | – | – | – | –
CCCCC/C=C\C/C=C\C/C=C\C/C=C\CCCC(=O)NCCO [Anandamide, arachidonylethanolamide, reference compound] | – | – | – | – | – | – | – | – | – | – | – | – | unable to affect serotonin release | 30 folds | 7% | 100% | 95% | 99 | no effect (3) | not effective
